Values after ≈ are worked out from the molar mass of the structure shown. Each block holds one compound with its values, some of them ahead of it.
Assays:
[1] = tested on: DT-R cells (pRRE3-luc-transfected v-ki-ras-transformed NIH3T3 cells); signal derived from Ras oncogene products; assay: Inhibitory effect against cellular signaling derived from Ras oncogene products: luciferase reporter, dissociation of DT-R from DT-C activity (MAC); assay type: cell-based, mouse; settings: minimal tested concentration at which luciferase activities of DT-C cells and DT-R cells dissociated
Source text: Test Example 1 Inhibitory Effect Against Cellular Signaling Derived From Ras Oncogene Products
1) Establishment of Cell Lines Used in Assay
Based on the reporter plasmid (pGV-P (Toyo Ink, Japan)), in which luciferase gene was ligated to SV40-derived minimal promoter, we constructed a plasmid designated pRRE3-luc by inserting 3 copies of chemically synthesized oligonucleotides (Sequence: CAGGATATGACTCT, derived from mouse NVL-3 (M. A. Reddy et al.(1992)Mol. Endocrinol., 6, 1051)) into upstream of the promoter. v-ki-ras-transformed NIH3T3 cells (DT cells, provided by Dr. Makoto Noda (Kyoto Univ., School of medicine)) were transfected with this plasmid by liposome-mediated transfection and transfected cell lines stably incorporated and maintained each plasmid were obtained. We named pGV-P and pRRE3-transfected cell line as DT-C and DT-R, respectively and used in the assay described below.
2) Preparation of Samples
i) All the cell lines were cultured in Dulbecco's Modified Essential Medium (DMEM: 10% Fetal Calf Serum(FCS: Hyclone, USA)) including […] kanamycin (Meiji Seika, Japan) in humidified incubator under condition of 5% CO2 at 37° C.
ii) DT-C and DT-R cells were seeded at 2500 cells/well into flat-bottom 96 well multiplate (Sumitomo bakelite) and incubated for 24 hours.
iii) Test compounds were prepared as 1 mg/ml DMSO solution.
iv) The solution of test compounds were added to the culture. Tested compounds are used at the concentration from […] to 0.51 ng/ml with by 3-fold dilution.
v) After 24 hours, the culture supernatant was completely aspirated and […] of cell-lysing solution (PGC-50 (Toyo Ink, Japan)) was added before cells were dried up. In order to the cells were lysed completely, multiwell plates were left at room temperature for 10 to 30 min. The plates were wrapped up and stored at −20° C. till the day of measurement.
3) Measurement of Samples
i) Melt the samples by putting 96 well multiplate at 37° C. and add 90 μl/well 25 mM Tris (pH 7.5).
ii) Transfer 50 μl of the sample (110 μl) to the 96 well microplate for measurement (Microlite 1 (Dynatech)).
iii) Measure the samples by the luminometer, LUMINOUS CT9000D (Dia-Yatron, Japan). We used Pickagene luminescence kit PGL2000 or LT2.0 (Toyo Ink, Japan) as substrates for luminescence measurement (50 μl/well).
4) Judgment of the Results
i) The luciferase activity of DT-C cells and DT-R cells were plotted in the graph where the relative activity and the compound concentration were expressed as Y-axis and X-axis, respectively. We judged by the degree of dissociation between the activities of DT-C cells and DT-R cells as an index.
ii) Concretely, efficacy of the compound was expressed by two values described below.
a) Among the points of concentration tested, the minimal concentration (Minimal Active Concentration: MAC), at which the activities of DT-C cells and DT-R cells dissociated, was shown as an index of efficacy of the compound.

[2] = tested on: human colon cancer HT29; assay: In vitro cell growth inhibition test, MTT assay; assay type: cell-based; settings: MTT assay 4 days after compound addition
Source text: (§1) Test Example 2 In Vitro Cell Growth Inhibition Test Cells and MTT Assay
(§2) Human squamous lung cancer […], human squamous lung cancer Ma44, human lung adenocarcinoma A549, human colon cancer HT29 and human pancreas cancer PANC-1 were used.

[3] = tested on: human lung adenocarcinoma A549; assay: In vitro cell growth inhibition test, MTT assay; assay type: cell-based; settings: MTT assay 4 days after compound addition
Source text: as §1, §2

[4] = tested on: human pancreas cancer PANC-1; assay: In vitro cell growth inhibition test, MTT assay; assay type: cell-based; settings: MTT assay 4 days after compound addition
Source text: as §1, §2

[5] = tested on: human squamous lung cancer Ma44; assay: In vitro cell growth inhibition test, MTT assay; assay type: cell-based; settings: MTT assay 4 days after compound addition
Source text: as §1, §2

[6] = tested on: human squamous lung cancer RERF-RC-AI; assay: In vitro cell growth inhibition test, MTT assay; assay type: cell-based; settings: MTT assay 4 days after compound addition
Source text: as §1, §2

Structure (SMILES): CCNC(=Nc1nc(C)ncc1CSc1nnc(-c2ccc(C)cc2)o1)NCC [Compound A-74]
- MAC (Minimal Active Concentration) [1]: 0.123 µg/mL
- IC50, HT29 [2]: 0.01 µg/mL (≈ 0.0243 µM)
- IC50, A549 [3]: 0.034 µg/mL (≈ 0.0826 µM)
- IC50, PANC-1 [4]: 0.017 µg/mL (≈ 0.0413 µM)
- IC50, Ma44 [5]: 0.012 µg/mL (≈ 0.0292 µM)
- IC50, RERF-LC-AI [6]: 0.008 µg/mL (≈ 0.0194 µM)

Structure (SMILES): CCNC(=Nc1nc(C)ncc1CSc1nnc(-c2ccc(N)cc2N)o1)NCC [Compound A-76]
- MAC (Minimal Active Concentration) [1]: 0.0137 µg/mL
- IC50, HT29 [2]: 0.008 µg/mL (≈ 0.0187 µM)
- IC50, A549 [3]: 0.02 µg/mL (≈ 0.0468 µM)
- IC50, PANC-1 [4]: 0.016 µg/mL (≈ 0.0374 µM)
- IC50, Ma44 [5]: 0.1 µg/mL (≈ 0.234 µM)
- IC50, RERF-LC-AI [6]: 0.008 µg/mL (≈ 0.0187 µM)

Structure (SMILES): CCNC(=Nc1nc(C)ncc1CSc1nnc(-c2ccc([N+](=O)[O-])cc2)o1)NCC [Compound A-82]
- MAC (Minimal Active Concentration) [1]: <0.000508 µg/mL
- IC50, HT29 [2]: 0.006 µg/mL (≈ 0.0136 µM)
- IC50, A549 [3]: 0.031 µg/mL (≈ 0.0701 µM)
- IC50, PANC-1 [4]: 0.014 µg/mL (≈ 0.0316 µM)
- IC50, Ma44 [5]: 0.014 µg/mL (≈ 0.0316 µM)
- IC50, RERF-LC-AI [6]: 0.008 µg/mL (≈ 0.0181 µM)

Structure (SMILES): CCNC(=Nc1ncncc1CSc1nnc(-c2ccc(SC)cc2)o1)NCC [Compound A-120]
- MAC (Minimal Active Concentration) [1]: 0.123 µg/mL
- IC50, HT29 [2]: 0.023 µg/mL (≈ 0.0535 µM)
- IC50, A549 [3]: 1.3 µg/mL (≈ 3.03 µM)
- IC50, PANC-1 [4]: 0.055 µg/mL (≈ 0.128 µM)
- IC50, Ma44 [5]: 0.1 µg/mL (≈ 0.233 µM)
- IC50, RERF-LC-AI [6]: 0.024 µg/mL (≈ 0.0559 µM)

Structure (SMILES): CCNC(=Nc1ncncc1CSc1nnc(-c2ccc([N+](=O)[O-])cc2)o1)NCCN [Compound A-122]
- MAC (Minimal Active Concentration) [1]: 1.11 µg/mL
- IC50, HT29 [2]: 0.089 µg/mL (≈ 0.201 µM)
- IC50, A549 [3]: 2.1 µg/mL (≈ 4.74 µM)
- IC50, PANC-1 [4]: 0.21 µg/mL (≈ 0.474 µM)
- IC50, Ma44 [5]: 0.3 µg/mL (≈ 0.676 µM)
- IC50, RERF-LC-AI [6]: 0.14 µg/mL (≈ 0.316 µM)

More lines, main results first:

- IC50, HT29 [2]: 0.039 µg/mL (≈ 0.0847 µM)
- IC50, A549 [3]: 0.18 µg/mL (≈ 0.391 µM)
- IC50, PANC-1 [4]: 0.081 µg/mL (≈ 0.176 µM)
- IC50, Ma44 [5]: 0.077 µg/mL (≈ 0.167 µM)
- IC50, RERF-LC-AI [6]: 0.05 µg/mL (≈ 0.109 µM)
Structure (SMILES): CCNC(=Nc1nc(C)ncc1CSc1nnc(-c2ccc([N+](=O)[O-])cc2F)o1)NCC [Compound A-132]
- MAC (Minimal Active Concentration) [1]: 0.123 µg/mL

- IC50, HT29 [2]: 0.013 µg/mL (≈ 0.0285 µM)
- IC50, A549 [3]: 0.049 µg/mL (≈ 0.107 µM)
- IC50, PANC-1 [4]: 0.025 µg/mL (≈ 0.0548 µM)
- IC50, Ma44 [5]: 0.026 µg/mL (≈ 0.057 µM)
- IC50, RERF-LC-AI [6]: 0.016 µg/mL (≈ 0.035 µM)
Structure (SMILES): CCNC(=Nc1nc(C)ncc1CSc1nnc(-c2ccc([N+](=O)[O-])cc2)o1)NC(C)C [Compound A-134]
- MAC (Minimal Active Concentration) [1]: 0.0137 µg/mL

- IC50, HT29 [2]: 0.01 µg/mL (≈ 0.0219 µM)
- IC50, A549 [3]: 0.052 µg/mL (≈ 0.114 µM)
- IC50, PANC-1 [4]: 0.017 µg/mL (≈ 0.0372 µM)
- IC50, Ma44 [5]: 0.016 µg/mL (≈ 0.035 µM)
- IC50, RERF-LC-AI [6]: 0.012 µg/mL (≈ 0.0263 µM)
Structure (SMILES): CCCNC(=Nc1nc(C)ncc1CSc1nnc(-c2ccc([N+](=O)[O-])cc2)o1)NCC [Compound A-135]
- MAC (Minimal Active Concentration) [1]: 0.0137 µg/mL

- IC50, HT29 [2]: 0.008 µg/mL (≈ 0.0176 µM)
- IC50, A549 [3]: 0.013 µg/mL (≈ 0.0286 µM)
- IC50, PANC-1 [4]: 0.007 µg/mL (≈ 0.0154 µM)
- IC50, Ma44 [5]: 0.014 µg/mL (≈ 0.0308 µM)
- IC50, RERF-LC-AI [6]: 0.013 µg/mL (≈ 0.0286 µM)
Structure (SMILES): CCCNC(=Nc1nc(CC)ncc1CSc1nnc(-c2ccc(N)cc2)o1)NCCC [Compound A-139]
- MAC (Minimal Active Concentration) [1]: <0.000508 µg/mL
